Source: ChEMBL document CHEMBL1150458, “A highly potent series of fluoroalkyl benzoxazine pyridine-N-oxide potassium channel openers” (Bioorg Med Chem Lett, 1993)
pIC50: −log10 of the molar value.

Tests used:
Format in all cases: functional
[1] = species on record: Cavia porcellus; assay: The compound was tested for hypotensive activity against guinea pig detrusor (bladder) strip mildly depolarized with 15 mM KCl
[2] = species on record: Cavia porcellus; assay: Tested for percent increase of efflux rate constant of 0.233 uM of compound using guinea pig detrusor
[3] = species on record: Cavia porcellus; assay: The compound was tested for hypotensive activity against guinea pig vascular tissue (portal vein) strip mildly depolarized with 15 mM KCl
[4] = test system: Rattus norvegicus; assay: Tested for lowering of blood pressure in spontaneously hypertensive rat model upon oral administration at 5 ug/kg

pIC50 [1]	Structure (SMILES)	other results
9.27	CC1(C(F)(F)F)CN(c2cccc[n+]2[O-])c2cc(S(=O)(=O)c3ccccc3)ccc2O1 (racemic)	–
9.55	C[C@@]1(C(F)(F)F)CN(c2cccc[n+]2[O-])c2cc(S(=O)(=O)c3ccccc3)ccc2O1	–
–	O=[N+]([O-])c1ccc2c(c1)N(c1cccc[n+]1[O-])CC(C(F)F)(C(F)F)O2	Increase [2]: 40.5%; pIC50 [3]: 9.22; Blood pressure [4]: 35 mmHg
8.39	CC1(C)CN(c2cccc[n+]2[O-])c2cc(S(=O)(=O)c3ccccc3)ccc2O1	–
9.17	C[C@]1(C(F)(F)F)CN(c2cccc[n+]2[O-])c2cc(S(=O)(=O)c3ccccc3)ccc2O1	–
7.13	CC1(C)CN(c2cccc[n+]2[O-])c2cc([N+](=O)[O-])ccc2O1	–
